PMC5045922, “In vivo pharmacological activity and biodistribution of S-nitrosophytochelatins after intravenous and intranasal administration in mice” (Nitric Oxide, 2016)
Read-outs that look alike come from different tables or passages of the source.

What was measured:
CD-1 mice = format: in vivo; details: for Tmax (time at which the maximum response occurred): in vivo, iv
Experimental: In vivo blood pressure was monitored in anaesthetized animals as previously described. A total of 12 wild type male mice were used (n = 3/group) where the groups represented the vehicle (0.9% saline) control, GSNO, SNOPC-2 and SNOPC-6 treatments, respectively. Mean arterial pressure was recorded in anaesthetized mice (2% isoflurane in air) on a homeothermically controlled heating blanket (Harvard Instruments, Edenbridge, UK). A 1.2F microtip pressure catheter (Scisense, Transonic Systems, Ithaca, NY, USA) was inserted into the right carotid artery and basal arterial pressure was recorded for 5 min. Test drug solutions (50 μL containing 500 μmol/L NO ≈ 1 μmol NO/kg body weight) or control (saline) solution were directly injected into the jugular vein using a 30 gauge needle inserted through the underlying muscle. Arterial blood pressure was recorded continuously for a further 5 min following drug administration using a PowerLab data acquisition system and Chart 7 software (ADInstuments, Oxford, UK).

[1] = design: species or system mice; details: CD-1, mouse, in vivo
Experimental: A total of 48 mice were used (n = 3/group/time point) where the groups represented vehicle (0.9%saline) control, GSNO, SNOPC-2 and SNOPC-6 treatments (n = 3 per group), respectively. A time course study (0, 1, 5 and 15 min) was carried out to characterize the NOx biodistribution after i.n. administration of compounds. Prior to drug administration, mice were anaesthetized by inhaling 2% isoflurane in air via a nose cone. A single volume (20 μL) of test solution in saline (containing 1.25 mmol/L NO ≈ 1 μmol NO/kg body weight) or control (saline) solution was then administered drop wise into the nasal cavity using a micropipette after removing the mouse momentarily from the anaesthetic mask cone and holding it in an upright position. At the appropriate time point animals were exsanguinated by terminal bleed under anaesthesia. Blood and organ samples were collected and processed as described in section 2.4.
Prior to quantification, tissue samples were thawed, weighed and homogenized at 100 mg tissue/mL in phosphate buffered saline (PBS; pH 7.4) using a Silverson model L4RT laboratory homogenizer. Homogenates were centrifuged at 13,000 g for 20 min at 4 °C to remove tissue debris. Whole blood samples were fractionated into plasma (serum + platelets) and blood cells (red and white blood cells) by centrifugation at 1200 g. Cellular blood components were lysed with lysis buffer (5 mmol/L Na o-vanadate, 10 mg/mL benzamidine, 1 mmol/L phenylmethylsulfonyl fluoride (PMSF), 10 mmol/L Tris HCl, 5 mmol/L ethylenediamine tetraacetic acid (EDTA), 50 mmol/L NaCl pH 7.4 and 3.5 mmol/L SDS) at a volume ratio of 1:5 cells: lysis buffer. These samples were centrifuged at 13,000 g for 20 min at 4 °C. Protein content of each sample was quantified using the Bradford assay.
Quantification of total NOx was performed according to a method described by Verdon et al.. Briefly, samples were de-proteinated by mixing the sample with 0.3 mol/L NaOH and aqueous 0.27 mol/L ZnSO4 at a volume ratio of 1:1:2. NOx was determined in 50 μL de-proteinated sample in the form of nitrite using the colorimetric Griess method, [28]. The amount of nitrite in each sample was calculated from a linear calibration curve of known nitrite concentrations (linear range: 1–100 μmol/L) and normalized for total amount of protein (mg), quantified using the Bradford assay. The final concentration, expressed as μM nitrite/mg protein, represents the total NOx in the system. Any remaining nitrite in the infusate (drug solution administered) was not measured as we were more interested in in vivo changes in NOx levels in untreated versus different treated groups at different time points measured but we have previously characterized this.

[2] = CD-1, mouse, in vivo, iv
[3] = cited from earlier work
[4] = design: method as in PMID 26686469; details: after equilibration of the NO moiety amongst plasma thiols via S-transnitrosylation; cited from earlier work
[5] = 10 μmol/L, human plasma and whole blood ex vivo
[6] = inhaled or intranasal, 1 umol/kg

Row | Tmax (time at which the maximum response occurred) (CD-1 mice; male, CD-1, mouse) [min] | NOx tmax Heart [1] [min] | NOx tmax Liver [1] [min] | NOx tmax Lung [1] [min] | NOx tmax Plasma [1] [min] | NOx tmax Heart [2] [min] | NOx tmax Liver [2] [min] | NOx tmax Lung [2] [min] | NOx tmax Plasma [2] [min] | Molecule | decomposition within the first 5 min [3, 5] [%] | time to full decomposition [3, 5] [min] | half-life [4] | further results
1 | 0.083 | 5 | 5 | 1 | 5 | 1 | 3 | 1 | 1 | N[C@@H](CCC(=O)N[C@@H](CSN=O)C(=O)N[C@@H](CCC(=O)N[C@@H](CSN=O)C(=O)NCC(=O)O)C(=O)O)C(=O)O [SNOPC-2] | – | – | – | –
2 | 0.083 | 5 | 5 | 1 | 5 | 1 | 5 | 1 | 3 | N[C@@H](CCC(=O)N[C@@H](CSN=O)C(=O)N[C@@H](CCC(=O)N[C@@H](CSN=O)C(=O)N[C@@H](CCC(=O)N[C@@H](CSN=O)C(=O)N[C@@H](CCC(=O)N[C@@H](CSN=O)C(=O)N[C@@H](CCC(=O)N[C@@H](CSN=O)C(=O)N[C@@H](CCC(=O)N[C@@H](CSN=O)C(=O)NCC(=O)O)C(=O)O)C(=O)O)C(=O)O)C(=O)O)C(=O)O)C(=O)O [SNOPC-6] | – | – | – | –
3 | – | – | – | – | – | – | – | – | – | S-nitrosated cysteine [CySNO] | ~85 | ≤ 15 | about 5 min | Half-life of decomposition ([3]; human): approximately 50 s
4 | – | – | – | – | – | – | – | – | – | N[C@@H](CCC(=O)N[C@@H](CSN=O)C(=O)NCC(=O)O)C(=O)O [GSNO, S-nitrosoglutathione] | ~85 | ≤ 15 | about 5 min | Half-life of decomposition [3, 5]: ~2 min; reduction in blood pressure (CD-1 mice; i.v., 1 μmol NO/kg body weight, CD-1 mice, compared to saline): 30–35%; Tmax (time at which the maximum response occurred) (CD-1 mice; mouse): 0.083 min; NOx tmax Heart [1, 6]: 5 min; NOx tmax Liver [1, 6]: 5 min; NOx tmax Lung [1, 6]: 1 min; NOx tmax Plasma [1, 6]: 5 min; NOx tmax Heart ([2]; 1 umol/kg): 3 min; NOx tmax Liver ([2]; 1 umol/kg): 5 min; NOx tmax Lung ([2]; 1 umol/kg): 1 min; NOx tmax Plasma ([2]; 1 umol/kg): 1 min
